According to PubChem BioAssay (NCI):
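48-hour exposure; five concentrations; linearly interpolated endpoints. TGI is the concentration that stops growth completely.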

Assays:
Experiment in all cases: growth of human tumour cells (NCI), 48 h
OVCAR-3 ovarian = tested on: OVCAR-3 ovarian
NCI-H23 lung = tested on: NCI-H23 lung
K-562 leukemia = tested on: K-562 leukemia
T-47D breast = tested on: T-47D breast
SK-OV-3 ovarian = tested on: SK-OV-3 ovarian
ACHN renal = tested on: ACHN renal
M14 melanoma = tested on: M14 melanoma
A549 NSCLC = tested on: A549 NSCLC
CAKI-1 renal = tested on: CAKI-1 renal
HL-60(TB) leukemia = tested on: HL-60(TB) leukemia
MCF7 breast = tested on: MCF7 breast
SR leukemia = tested on: SR leukemia
HOP-92 NSCLC = tested on: HOP-92 NSCLC
TK-10 renal = tested on: TK-10 renal
A498 renal = tested on: A498 renal
MOLT-4 leukemia = tested on: MOLT-4 leukemia
OVCAR-8 ovarian = tested on: OVCAR-8 ovarian
SF-268 CNS = tested on: SF-268 CNS
SNB-75 CNS = tested on: SNB-75 CNS
HOP-62 NSCLC = tested on: HOP-62 NSCLC
PC-3 prostate = tested on: PC-3 prostate
MDA-N = tested on: MDA-N
SN12C renal = tested on: SN12C renal
SK-MEL-5 melanoma = tested on: SK-MEL-5 melanoma
UACC-62 melanoma = tested on: UACC-62 melanoma
RXF 393 renal = tested on: RXF 393 renal
HCT-116 colon = tested on: HCT-116 colon
CCRF-CEM leukemia = tested on: CCRF-CEM leukemia
SK-MEL-2 melanoma = tested on: SK-MEL-2 melanoma
OVCAR-5 ovarian = tested on: OVCAR-5 ovarian
U251 CNS = tested on: U251 CNS
HCC-2998 colon = tested on: HCC-2998 colon
HT29 colon = tested on: HT29 colon
BT-549 breast = tested on: BT-549 breast
EKVX NSCLC = tested on: EKVX NSCLC
SF-295 CNS = tested on: SF-295 CNS
UO-31 renal = tested on: UO-31 renal
RPMI-8226 leukemia = tested on: RPMI-8226 leukemia
NCI/ADR-RES ovarian = tested on: NCI/ADR-RES ovarian
DU-145 prostate = tested on: DU-145 prostate
786-0 renal = tested on: 786-0 renal
HCT-15 colon = tested on: HCT-15 colon
SNB-19 CNS = tested on: SNB-19 CNS
LOX IMVI melanoma = tested on: LOX IMVI melanoma
SW-620 colon = tested on: SW-620 colon
IGROV1 ovarian = tested on: IGROV1 ovarian
MALME-3M melanoma = tested on: MALME-3M melanoma
NCI-H226 lung = tested on: NCI-H226 lung
NCI-H522 lung = tested on: NCI-H522 lung
OVCAR-4 ovarian = tested on: OVCAR-4 ovarian
KM12 colon = tested on: KM12 colon
MDA-MB-435 = tested on: MDA-MB-435
COLO 205 colon = tested on: COLO 205 colon
UACC-257 melanoma = tested on: UACC-257 melanoma
SK-MEL-28 melanoma = tested on: SK-MEL-28 melanoma
MDA-MB-231 breast = tested on: MDA-MB-231 breast
NCI-H460 lung = tested on: NCI-H460 lung
HS 578T breast = tested on: HS 578T breast
SF-539 CNS = tested on: SF-539 CNS

O=C1CCCC1C(=O)Nc1ccc2ccccc2c1 (stereo not drawn)
TGI (OVCAR-3 ovarian): > 100 µM | TGI (NCI-H23 lung): > 100 µM | TGI (K-562 leukemia): > 100 µM | TGI (T-47D breast): > 100 µM | TGI (SK-OV-3 ovarian): > 100 µM | TGI (ACHN renal): > 100 µM | TGI (M14 melanoma): > 100 µM | TGI (A549 NSCLC): > 100 µM | TGI (CAKI-1 renal): > 100 µM | TGI (HL-60(TB) leukemia): > 100 µM | TGI (MCF7 breast): > 100 µM | TGI (SR leukemia): > 100 µM | TGI (HOP-92 NSCLC): > 100 µM | TGI (TK-10 renal): > 100 µM | TGI (A498 renal): > 100 µM | TGI (MOLT-4 leukemia): > 100 µM | TGI (OVCAR-8 ovarian): > 100 µM | TGI (SF-268 CNS): > 100 µM | TGI (SNB-75 CNS): > 100 µM | TGI (HOP-62 NSCLC): > 100 µM | TGI (PC-3 prostate): > 100 µM | TGI (MDA-N): > 100 µM | TGI (SN12C renal): > 100 µM | TGI (SK-MEL-5 melanoma): > 100 µM | TGI (UACC-62 melanoma): > 100 µM | TGI (RXF 393 renal): > 100 µM | TGI (HCT-116 colon): > 100 µM | TGI (CCRF-CEM leukemia): > 100 µM | TGI (SK-MEL-2 melanoma): > 100 µM | TGI (OVCAR-5 ovarian): > 100 µM | TGI (U251 CNS): > 100 µM | TGI (HCC-2998 colon): > 100 µM | TGI (HT29 colon): > 100 µM | TGI (BT-549 breast): > 100 µM | TGI (EKVX NSCLC): > 100 µM | TGI (SF-295 CNS): > 100 µM | TGI (UO-31 renal): > 100 µM | TGI (RPMI-8226 leukemia): > 100 µM | TGI (NCI/ADR-RES ovarian): > 100 µM | TGI (DU-145 prostate): > 100 µM | TGI (786-0 renal): > 100 µM | TGI (HCT-15 colon): > 100 µM | TGI (SNB-19 CNS): > 100 µM | TGI (LOX IMVI melanoma): > 100 µM | TGI (SW-620 colon): > 100 µM | TGI (IGROV1 ovarian): > 100 µM | TGI (MALME-3M melanoma): > 100 µM | TGI (NCI-H226 lung): > 100 µM | TGI (NCI-H522 lung): > 100 µM | TGI (OVCAR-4 ovarian): > 100 µM | TGI (KM12 colon): > 100 µM | TGI (MDA-MB-435): > 100 µM | TGI (COLO 205 colon): > 100 µM | TGI (UACC-257 melanoma): > 100 µM | TGI (SK-MEL-28 melanoma): > 100 µM | TGI (MDA-MB-231 breast): > 100 µM | TGI (NCI-H460 lung): > 100 µM

CN(NC(=O)/C(=C/c1ccc(O)cc1)NC(=O)c1ccccc1)c1ccnc2cc(Cl)ccc12
TGI (OVCAR-3 ovarian): 31.2 µM | TGI (K-562 leukemia): 30.5 µM | TGI (T-47D breast): 45.6 µM | TGI (SK-OV-3 ovarian): 36.6 µM | TGI (ACHN renal): 33 µM | TGI (M14 melanoma): 36.6 µM | TGI (A549 NSCLC): 38.4 µM | TGI (CAKI-1 renal): 33.8 µM | TGI (HL-60(TB) leukemia): 5.84 µM | TGI (MCF7 breast): 30.4 µM | TGI (SR leukemia): 10.4 µM | TGI (HOP-92 NSCLC): 32.2 µM | TGI (TK-10 renal): 30 µM | TGI (A498 renal): 32.4 µM | TGI (MOLT-4 leukemia): 43 µM | TGI (OVCAR-8 ovarian): 47 µM | TGI (SF-268 CNS): 36 µM | TGI (SNB-75 CNS): 22.8 µM | TGI (HOP-62 NSCLC): 30.1 µM | TGI (PC-3 prostate): 32.7 µM | TGI (MDA-N): 32.2 µM | TGI (SN12C renal): 48.6 µM | TGI (SK-MEL-5 melanoma): 37.5 µM | TGI (UACC-62 melanoma): 31.8 µM | TGI (RXF 393 renal): 32 µM | TGI (HCT-116 colon): 38.2 µM | TGI (CCRF-CEM leukemia): 61.5 µM | TGI (SK-MEL-2 melanoma): 44.4 µM | TGI (OVCAR-5 ovarian): 50.5 µM | TGI (U251 CNS): 28.5 µM | TGI (HCC-2998 colon): 33.3 µM | TGI (HT29 colon): 23 µM | TGI (EKVX NSCLC): 42.9 µM | TGI (SF-295 CNS): 32.3 µM | TGI (UO-31 renal): 18.6 µM | TGI (RPMI-8226 leukemia): 40.7 µM | TGI (HS 578T breast): 48.2 µM | TGI (NCI/ADR-RES ovarian): 38 µM | TGI (DU-145 prostate): 56.9 µM | TGI (786-0 renal): 35.8 µM | TGI (SNB-19 CNS): 32.6 µM | TGI (LOX IMVI melanoma): 37.2 µM | TGI (SW-620 colon): 47.2 µM | TGI (SF-539 CNS): 43.3 µM | TGI (IGROV1 ovarian): 34.1 µM | TGI (MALME-3M melanoma): 39.8 µM | TGI (NCI-H226 lung): 32.7 µM | TGI (NCI-H522 lung): 60.7 µM | TGI (OVCAR-4 ovarian): 33.6 µM | TGI (KM12 colon): 35.8 µM | TGI (MDA-MB-435): 32.3 µM | TGI (COLO 205 colon): 36.2 µM | TGI (UACC-257 melanoma): 33.9 µM | TGI (SK-MEL-28 melanoma): 38.1 µM | TGI (MDA-MB-231 breast): 40.4 µM | TGI (NCI-H460 lung): 31.2 µM
